From patent US8691281B2, “Solid pharmaceutical composition containing 6-oxo-6,7,8,9,10,11-hexahydrocyclohepta (C)chromen-3-yl sulfamate and polymorphs thereof” (Ipsen Pharma S.A.S., priority 2009, dated 2014)

Assays:
Type in all cases: physicochemical
[1] = Chemical stability at 100° C. by HPLC
Method: A stability study was carried out at 100° C. between variety I of compound 1 and the compound 1 described in patent EP 880514. The chemical stability of compound 1 is studied using HPLC with different scores.
(§1) The operating conditions of the HPLC method are the following: • column: Interchim UP3HDO-15XS, 150×4.6 mm,
(§2) • detection: 205 nm, • injection: 20 microliters, • temperature: 40° C., • solution injected: 0.5 mg·mL^−1 (acetonitrile)

[2] = Biopharmaceutical Classification System (BCS) class
Excerpt: Compound 1 belongs to Class 2 of the Biopharmaceutical Classification System or BCS proposed by G. Amidon (cf. G. L. Amidon et al., “A theoretical basis for a biopharmaceutical drug classification: the correlation of in vitro drug dissolution and in vivo bioavailability”, Pharm. Res. 12 (1995) 413-420). Its absorption, and therefore its bioavailability, thus strongly depend on the dissolution rate of the pharmaceutical form administered.

[3] = Chemical stability at 150° C. by HPLC
Method: A stability study was carried out at 150° C. between compound 1 of form III and the compound 1 described in patent EP 880514. This chemical stability of compound 1 is studied using HPLC
as §1, §2

[4] = Conversion experiments between the polymorphic forms; conditions: after heating, return to ambient temperature
Method: The applicant has carried out conversion experiments between the different polymorphic forms of compound 1 which have shown that form III is the form which is stable at a high temperature (T>145° C.). This significant property makes it possible, by heating under vacuum, to eliminate traces of solvent (Polymorphism in the Pharmaceutical Industry, Wiley 2006, Ed Hilfiker; Wiley, ISBN: 978-3-527-31146-0).

[5] = Particle size distribution (Malvern Mastersizer S laser granulometer)
Method: • Wavelength: 1.54056 Cu, voltage 40 KV, intensity 40 mA • Measurement range: 3°-30°2 theta • Interval: 0.04°2 theta • Duration of the interval: 4s • Fixed slots: 1.6 mm • Kβ filter (Ni) • Without internal reference • EVA software (v 12.0) for data processing Smart Apex Bruker diffractometer, two-dimensional detector • SMART software for determination of the parameters and orientation of the crystal matrix • SAINT software for data integration and processing • WinGX software for determination of the space group and the structural resolution 6.1.2 DSC • Netzsch DSC 204F1 • Aluminium crucible and pierced lid • Atmosphere: Helium • Initial temperature: 20° C. • Final temperature: 200° C. • Temperature gradient: 5° C.·min^−1 6.1.3 IR • KBr pellet • Bruker IFS28 type spectrometer • Spectral range: 400-4000 cm^−1 6.1.4 NMR of the solid • Bruker Avance 500 MHz spectrometer • MAS (Magic Angle Spinning) 4 mm probe • Bruker XwinNMR software • VACP (Variable Amplitude Cross-Polarization) with MAS (11 kHz) and proton decoupling (spinal 64, 65 kHz) • External reference: Adamantane 6.1.5 Particle Size Distribution • Malvern Mastersizer S laser granulometer • Size of the sample: 30 to 50 mg • Dispersion medium: 0.50% (m/v) Nonidet in water • Mie theory with as refractive indices: particle RI=1.55; imaginary RI=1.00; dispersant RI=1.38 • Sonication time: 60 seconds • Sonication energy: 50 to 60 Hz • Recirculation time: 30 seconds at 2000 rpm^−1 • Obscuration: 15-25% 6.2 Characterization of the Examples 6.2.1 Examples 5 and 5b

| SMILES | HPLC Purity ([1]; T0) | HPLC Purity ([1]; T1 day at 100° C.) | HPLC Purity ([1]; T2 days at 100° C.) | HPLC Purity ([1]; T3 days at 100° C.) | HPLC Purity ([1]; T7 days at 100° C.) | particle size distribution D10(%) [5] | particle size distribution D50(%) [5] | particle size distribution D90(%) [5] | also measured |
| --- | --- | --- | --- | --- | --- | --- | --- | --- | --- |
| NS(=O)(=O)Oc1ccc2c3c(c(=O)oc2c1)CCCCC3 [Variety I of compound 1, 6-oxo-6,7,8,9,10,11-hexahydrocyclohepta[c]chromen-3-yl sulphamate] | 99.6% | 99.6% | 99.7% | 99.7% | 99.7% | – | – | – | – |
| NS(=O)(=O)Oc1ccc2c3c(c(=O)oc2c1)CCCCC3 [Compound 1, 6-oxo-6,7,8,9,10,11-hexahydrocyclohepta[c]chromen-3-yl sulphamate] | – | – | – | – | – | – | – | – | Biopharmaceutical Classification System (BCS) class [2]: Class 2 |
| NS(=O)(=O)Oc1ccc2c3c(c(=O)oc2c1)CCCCC3 [Compound 1 Patent EP 880514, 6-oxo-6,7,8,9,10,11-hexahydrocyclohepta[c]chromen-3-yl sulphamate, reference compound] | 99.6% | 99.1% | 98.8% | 98.7% | 98.0% | – | – | – | HPLC Purity ([3]; T0 (start of stability study at 150° C.)): 99.6%; HPLC Purity ([3]; T2 hours at 150° C.): 7.3% |
| NS(=O)(=O)Oc1ccc2c3c(c(=O)oc2c1)CCCCC3 [form III, 6-oxo-6,7,8,9,10,11-hexahydrocyclohepta[c]chromen-3-yl sulphamate] | – | – | – | – | – | – | – | – | behaviour of the form on returning to ambient temperature [4]: remains unchanged; HPLC Purity ([3]; T0 (start of stability study at 150° C.), listed as Compound 1 of form III): 99.4%; HPLC Purity ([3]; T2 hours at 150° C., listed as Compound 1 of form III): 41.2% |
| NS(=O)(=O)Oc1ccc2c3c(c(=O)oc2c1)CCCCC3 [Example 2-2] | – | – | – | – | – | 1.2 μm | 5.2 μm | 11.0 μm | – |
| NS(=O)(=O)Oc1ccc2c3c(c(=O)oc2c1)CCCCC3 [Example 3] | – | – | – | – | – | 0.6 μm | 3.1 μm | 13.7 μm | – |
